Measured values as given in patent US20050153985A1, “Methods of treating acute inflammation in animals with p38 map kinase inhibitors” (priority 2003, published 2005).
Entries after “also recorded” stand apart in the source; their conditions may differ.

Tested on: E. coli (MacDonald 487) induced mastitis
Test: E. coli induced mastitis in lactating cows, treatment 13 hours after intramammary challenge
Type: in vivo, lactating Holstein cows
Conditions: 10 mg/kg IV; for mean E. coli colony counts in milk after treatment: 11-168 hours, FIG. 10; for mean E. coli colony counts in milk after treatment / milk somatic cell count (SCC) / mean whey PGE2 levels after treatment: compared to infected; for mean E. coli colony counts in milk after treatment / milk clinical scores / gland clinical scores: non-medicated controls; for whey PGE2 levels at 11 hours after treatment: relative to level at time 0; for milk produced during the 13 days after treatment: based on mean daily milk production values from FIG. 2, infected, non-medicated cow 365 lbs; for cumulative clinical scores: compared to controls, FIG. 5; for milk production loss associated with mastitis following treatment: compared to infected cows treated with vehicle, FIG. 2; for milk somatic cell count (SCC) / mean whey PGE2 levels after treatment: non-medicated control cows; for milk somatic cell count (SCC): FIG. 6; for mean whey PGE2 levels after treatment: FIG. 9; for milk produced during the 13 days after treatment compared with infected, non-medicated cow: comparison in words; for total WBC numbers (peripheral blood) / total PMN numbers (peripheral blood): data analyzed for 0-72 hours, vs controls; for total WBC numbers (peripheral blood): FIG. 7; for total PMN numbers (peripheral blood): FIG. 8; for milk clinical scores / gland clinical scores: vs infected; for milk clinical scores: FIG. 3; for gland clinical scores: FIG. 4
Description: Thirty-three lactating Holstein cows were randomly allotted to 5 treatment groups blocked by milk production and days in milk. Milk and blood samples and temperature data were collected at the morning milking on day −1. One normal quarter was selected from each cow based on clinical scores and California Mastitis Test (CMT) results performed at morning milking on day −1. After the evening milking on […], selected quarters were infused with approximately 30 cfu of E. coli (MacDonald 487). Milk and blood samples and temperature data were collected prior to treatment at the morning milking on day 0. Cows were treated after the morning milking on day 0 according to the study design. After treatment, milk and blood samples and temperature data were collected at 11, 24, 35, 48, 72, 144, 168, 192, and 216 hours. Clinical scores of infused quarters and milk production were assessed at each milking. Milk samples were analyzed for culture (E. coli), SCC, TNF-α and PGE2 and blood leukograms were determined. [table] Assessment of test article efficacy was determined based upon a comparison of the treatment effect on each variable versus the challenged, non-medicated group. Data were analyzed using the MIXED procedure of PC-SAS version 6.12. The model included treatment, time and their interaction. Covariance within cows across time was modeled using the Repeated statement analysis with a […] covariance structure to account for unequally spaced sampling times. Tests for significance (P≦0.10) were based upon the main treatment effect compared with the challenged, non-medicated group. The P value of ≦0.10 was selected based on the number of animals per treatment group and the conservative nature of the SAS procedure. […] In all, 27 of 27 quarters challenged developed clinical mastitis.

Compound	mean E. coli colony counts in milk after treatment	whey PGE2 levels at 11 hours after treatment	milk produced during the 13 days after treatment [lbs]	cumulative clinical scores	milk production loss associated with mastitis following treatment	milk somatic cell count (SCC)	mean whey PGE2 levels after treatment	milk produced during the 13 days after treatment compared with infected, non-medicated cow	total WBC numbers (peripheral blood)	total PMN numbers (peripheral blood)	milk clinical scores	gland clinical scores
Nc1nccc(-c2c(-c3ccc(F)cc3)ncn2C2CCNCC2)n1 [MAPKi #1]	significantly decreased; also recorded: Significant improvement	decline	847	significantly lower; also recorded: Significant improvement	significantly less milk production loss; also recorded: Significant improvement	trend towards lower SCC	significant reduction; also recorded: Significant improvement	more than twice as much milk	returned to pre-challenge levels significantly faster; also recorded: Significant improvement	returned to pre-challenge levels significantly faster	significantly improved; also recorded: Significant improvement	Significantly improved; also recorded: Significant improvement
CC(C)n1c(=O)n(C)c2cc(-c3[nH]c(-c4cnccn4)nc3-c3ccc(F)cc3)ccc21 [MAPKi #2]	decline in milk E. coli numbers compared to controls but the difference was not significant; also recorded: reduced	remained at the same level	689	significantly lower; also recorded: Significant reductions			significant reduction	produced more milk than control cows	returned to pre-challenge levels significantly faster	returned to pre-challenge levels significantly faster	significantly improved; also recorded: Significant reductions	Significantly improved; also recorded: Significant reductions
CC(=O)Nc1nc(-c2cccc(C)c2)c(-c2ccc3c(c2)n(C)c(=O)n3CC(C)C)[nH]1 [MAPKi #3]	did not show a decline	continue to rise	366		no trend for improved	trend towards lower SCC	significant reduction; also recorded: significantly reduced	produced the same amount of milk as infected, non-medicated control cows			no trend for improved	Significantly improved
